Test results from the supplement of paper PMC8960247.
Structures can show the parent of a compound that is named as a salt. ± gives the standard error.

Assays:
621-102 (TSC2-deficient) = experiment: relative viability vs DMSO; higher = less cytotoxic; settings: serum: 10% FBS, 72 h
621-103 (TSC2-rescued) = experiment: as above; settings: serum: 10% FBS, 72 h
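Also: immortalized renal angiomyolipoma cells stably carrying empty vector or TSC2, dosed in 384-well plates in DMEM, viability normalized to vehicle-treated wells within each plate.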

Structure (SMILES)	relative viability (621-102 (TSC2-deficient); 0.0001 µM) [%]	relative viability (621-102 (TSC2-deficient); 0.001 µM) [%]	relative viability (621-102 (TSC2-deficient); 0.01 µM) [%]	relative viability (621-102 (TSC2-deficient); 0.1 µM) [%]	relative viability (621-102 (TSC2-deficient); 1 µM) [%]	relative viability (621-102 (TSC2-deficient); 10 µM) [%]	relative viability (621-103 (TSC2-rescued); 0.0001 µM) [%]	relative viability (621-103 (TSC2-rescued); 0.001 µM) [%]	relative viability (621-103 (TSC2-rescued); 0.01 µM) [%]	relative viability (621-103 (TSC2-rescued); 0.1 µM) [%]	relative viability (621-103 (TSC2-rescued); 1 µM) [%]	relative viability (621-103 (TSC2-rescued); 10 µM) [%]
CC[C@]1(O)C[C@H]2CN(CCc3c([nH]c4ccccc34)[C@@](C(=O)OC)(c3cc4c(cc3OC)N(C=O)[C@H]3[C@@](O)(C(=O)OC)[C@H](OC(C)=O)[C@]5(CC)C=CCN6CC[C@]43[C@@H]65)C2)C1 [Vincristine Sulfate]	42 ± 1.8	37.1 ± 4.2	41.7 ± 0.87	38.6 ± 0.59	37 ± 0.55	33.5 ± 1.3	48.3 ± 0.14	38 ± 0.93	33.5 ± 0.55	30.4 ± 0.59	27.1 ± 1.3	21.9 ± 0.84
CCC[C@H](N[C@@H](C)C(=O)N1[C@H](C(=O)O)C[C@@H]2CCCC[C@@H]21)C(=O)OCC [Perindopril Erbumine]	101 ± 0.48	106 ± 0.46	98.6 ± 1.7	104.3 ± 0.76	107.29 ± 0.055	73.7 ± 4.8	103.3 ± 0.76	108.5 ± 0.44	84.6 ± 1.6	111 ± 3.4	98.7 ± 11	79.52 ± 0.69
CC1=NN(c2ccc(C)c(C)c2)C(=O)/C1=N\Nc1cccc(-c2cccc(C(=O)O)c2)c1O	106.5 ± 0.35	104 ± 3.9	98.5 ± 2.5	108.4 ± 0.85	100.7 ± 0.44	83.7 ± 3.2	99.1 ± 1.1	103 ± 3.9	100.9 ± 0.81	99.8 ± 1	106.9 ± 0.69	90.7 ± 4
Cn1c(=O)c(F)c(Nc2ccc(I)cc2F)c2c(=O)n(C[C@@H](O)CO)cnc21 [TAK-733]	101 ± 5.3	107 ± 2.2	101 ± 4.8	95.22 ± 0.047	67.4 ± 2.4	54.3 ± 0.28	97.8 ± 5.4	84.4 ± 2.9	83.5 ± 6	84.4 ± 7	60.7 ± 6.7	51.7 ± 4.3
CNCCCC12CCC(c3ccccc31)c1ccccc12 [Maprotiline HCl]	124.2 ± 0.15	114 ± 4.2	109 ± 5.4	107 ± 3.5	107.1 ± 0.36	82.2 ± 3.8	101 ± 1.2	102 ± 1.2	99.43 ± 0.5	95.4 ± 4.2	87.6 ± 2.2	64.61 ± 0.13
CCC(C)(Oc1ccc(C2(c3ccc(OC(C)(CC)C(=O)O)cc3)CCCCC2)cc1)C(=O)O (stereo not given) [Clinofibrate]	99.8 ± 0.13	107 ± 1.1	99.1 ± 2.4	99.1 ± 1.4	94.4 ± 4.2	107 ± 2.1	102.4 ± 0.13	93 ± 7.7	94.9 ± 0.43	105 ± 1.8	105 ± 3.6	91.3 ± 2.9
Cn1c(CNc2ccc(C(=N)N)cc2)nc2cc(C(=O)N(CCC(=O)O)c3ccccn3)ccc21 [BIBR 953]	64.4 ± 4.5	77.2 ± 5.6	90.2 ± 2.2	88.6 ± 4.5	82.7 ± 9.1	81 ± 4.6	78 ± 9	76.5 ± 10	82.8 ± 11	94.1 ± 7.3	88.3 ± 6.7	91.3 ± 4.6
CCN1CCCC1CNC(=O)c1cc(S(=O)(=O)CC)c(N)cc1OC (stereo not given) [Amisulpride]	111 ± 3.8	100 ± 1.3	104.3 ± 0.84	105 ± 3	107.5 ± 0.4	110 ± 1.6	104 ± 1.8	105 ± 2.5	110.7 ± 0.99	103.5 ± 0.35	113 ± 4.8	114 ± 3.6
FC(F)c1nc2ccccc2n1-c1nc(N2CCOCC2)nc(N2CCOCC2)n1 [ZSTK474]	88.8 ± 4.7	94.9 ± 1.6	89.77 ± 0.68	95.7 ± 2	91.2 ± 3.4	52.1 ± 1.8	101 ± 2.4	97 ± 3.6	103.8 ± 0.79	105.3 ± 0.49	96.3 ± 2.2	49.6 ± 1.3
OCCn1cc(-c2ccc3c(c2)CC/C3=N\O)c(-c2ccncc2)n1 [GDC-0879]	101.5 ± 0.2	102 ± 1.7	107 ± 2.4	102 ± 2.6	108 ± 1.7	92.1 ± 2	101.6 ± 0.87	97.76 ± 0.82	98.9 ± 1.5	99.06 ± 0.76	96.15 ± 0.42	100.41 ± 0.061
